In this assay the test system is Plasmodium berghei. In words: Luciferase/luciferin-expressing antifolate-resistant parasites were used to infect a culture of HepG2 cells that were pre-incubated with compounds. Infected hepatocytes emit light due to the luciferase reaction. Assay results are presented as the percent inhibition of light emission compared to control. […]. It counts as functional. The settings on record: sporozoite; for IC90: read-out: LUCIFERASE INFECTION ASSAY - IC90.

[1] abbreviates: read-out: LUCIFERASE INFECTION ASSAY - IC50.

A word on the IC50: it is the concentration that inhibits the measured activity by half. In general, IC90 refers to the concentration needed for an effect of 90%.

As for `O=C1Nc2ccc([N+](=O)[O-])cc2/C1=N\NC(=O)c1cc2ccccc2cc1O`, the IC90 was over 10 µM. For the same molecule, the IC50 (PBLUC_HILL_SLOPE 1.88, PBLUC_R_SQUARED 0.548, read-out: LUCIFERASE INFECTION ASSAY - IC50) worked out at 4.86 µM.

On to `OCc1cccc(Nc2nc(-c3ccsc3)nc3ccccc23)c1`, for which the IC90 is over 10 µM. The IC50 under setting [1] is over 10 µM.

Turning to `COc1cc(/C=N/NC(=O)c2cc3c(s2)CCC(C)C3)ccc1OC(=O)c1ccco1` (stereo not drawn), the IC90 was over 10 µM. The IC50 under setting [1] is over 10 µM.

In the case of `NC(Cc1ccc(C(F)(F)F)cc1)c1csc(Nc2nncc3ccccc23)n1` (stereo not drawn), the IC90 is over 7.94 µM. The IC50 under setting [1] was over 7.94 µM.

With `CC(=O)Nc1ccc(S(=O)(=O)N2CCCc3cc(C)ccc32)cc1`, the IC90 is over 10 µM. Moreover, the IC50 (HEPG2TOX_HILL_SLOPE 2.72, HEPG2TOX_R_SQUARED 0.907, PBLUC_HILL_SLOPE 2.8, PBLUC_R_SQUARED 0.127, read-out: LUCIFERASE INFECTION ASSAY - IC50) was determined as 5.79 µM.

In the case of `Cc1ccc2nc(NC(=O)c3cccc(C(F)(F)F)c3)c(C(=O)NC3CCCCC3)n2c1`, the IC90 came to 0.579 µM. Besides, for the setting “FFLUC_HILL_SLOPE 2.54, FFLUC_R_SQUARED 0.701, HEPG2TOX_HILL_SLOPE 1.03, HEPG2TOX_R_SQUARED 0.261, PBLUC_HILL_SLOPE 2.67, PBLUC_R_SQUARED 0.838, read-out: LUCIFERASE INFECTION ASSAY - IC50”, the IC50 is 0.254 µM.

Take `CN(C)CCNC(=O)c1ccc(-c2cnc3c(Nc4ccc(Oc5ccccc5)cc4)nccn23)cc1`: the IC90 is over 6.7 µM. Moreover, under setting [1], the concentration for half-maximal inhibition (IC50) was over 6.7 µM.

On to `COc1cc(C(=O)N(C)Cc2ccccc2N2CCOCC2)cc(OC)c1OC`, for which the IC90 is over 10 µM. Further, under setting [1], the IC50 is over 10 µM.

With `O=C1C=CC(=O)N1Cc1ccc2c(c1)OCO2`, the IC90 came to 13.4 µM. The IC50 (PBLUC_HILL_SLOPE 13.6, PBLUC_R_SQUARED 0.619, read-out: LUCIFERASE INFECTION ASSAY - IC50) was determined as 11.4 µM.

`FC(F)(F)c1nc(NCCNc2ccccn2)c2ccccc2n1`: the IC90 was 5.48 µM. In addition, the IC50 (HEPG2TOX_HILL_SLOPE 0.531, HEPG2TOX_R_SQUARED 0.801, PBLUC_HILL_SLOPE 0.677, PBLUC_R_SQUARED 0.347, read-out: LUCIFERASE INFECTION ASSAY - IC50) turned out to be 0.214 µM.

As for `NS(=O)(=O)c1ccc(Nc2nc(-c3cc(F)ccc3F)cs2)cc1`, the IC90 is over 10 µM. Where the note is “FFLUC_HILL_SLOPE 0.845, FFLUC_R_SQUARED 0.288, PBLUC_HILL_SLOPE 13.0, 1.97, PBLUC_R_SQUARED 0.591, 0.616, read-out: LUCIFERASE INFECTION ASSAY - IC50”, the IC50 turned out to be 8.85 µM.

As for `O=C(Nc1ccc(OCc2ccccc2)cc1)C1=COC2=NC(=O)N(Cc3cccc(Cl)c3)CCN12`, the IC90 came out at 4.47 µM. Further, where the note is “HEPG2TOX_HILL_SLOPE 2.27, HEPG2TOX_R_SQUARED 0.429, PBLUC_HILL_SLOPE 8.12, PBLUC_R_SQUARED 0.376, read-out: LUCIFERASE INFECTION ASSAY - IC50”, the IC50 worked out at 3.41 µM.

On to `O=C(CSc1nc2ccccc2c(=O)n1-c1ccccc1F)N1CCSC1c1ccccc1F` (stereo not drawn), for which the 90% effect concentration (IC90) was over 10 µM. Further, under setting [1], the IC50 was over 10 µM.

`FC(F)(F)c1cnc(N/N=C/c2ccccn2)c(Cl)c1`: the IC90 was 4 µM. Also, the IC50 under setting [1] is 3.33 µM.

Turning to `Cc1nn(Cc2ccccc2)c(Cl)c1/C=C/C(=O)OC(C)C(=O)N1CCCC1` (stereo not drawn), the IC90 was 4.19 µM. Besides, for the setting “PBLUC_HILL_SLOPE 3.98, PBLUC_R_SQUARED 0.412, read-out: LUCIFERASE INFECTION ASSAY - IC50”, the IC50 came out at 2.41 µM.

`N=C(N)SCc1csc(-c2ccc(Br)cc2)n1`: the IC90 was over 9.05 µM. In addition, the IC50 under setting [1] was over 9.05 µM.

With `O=C(Nc1ccc(-n2cccn2)nc1)C1=NN(c2ccccc2)C(=O)CN1`, the IC90 was over 10 µM. For the same molecule, the IC50 (PBLUC_HILL_SLOPE 2.66, PBLUC_R_SQUARED 0.194, read-out: LUCIFERASE INFECTION ASSAY - IC50) was over 10 µM.

With `Cc1noc(C)c1S(=O)(=O)N(Cc1ccc(C(=O)NC2CC2)cc1)C1CC1`, the IC90 was 3.5 µM. Moreover, the IC50 (PBLUC_HILL_SLOPE 0.781, PBLUC_R_SQUARED 0.696, read-out: LUCIFERASE INFECTION ASSAY - IC50) worked out at 0.21 µM.

For the molecule `Cc1csc(NC(=O)Nc2cc(C(F)(F)F)cc(C(F)(F)F)c2)c1Cl`, the IC90 turned out to be 2.61 µM. For the same molecule, the half-maximal inhibitory concentration (IC50) (HEPG2TOX_HILL_SLOPE 3.35, HEPG2TOX_R_SQUARED 0.976, PBLUC_HILL_SLOPE 39.1, PBLUC_R_SQUARED 0.116, read-out: LUCIFERASE INFECTION ASSAY - IC50) is 2.47 µM.

For the molecule `CC(C)(C)NC(=S)Nc1ccc(C(F)(F)F)cc1[N+](=O)[O-]`, the 90% effect concentration (IC90) was over 10.3 µM. The IC50 (PBLUC_HILL_SLOPE 10.5, PBLUC_R_SQUARED 0.215, read-out: LUCIFERASE INFECTION ASSAY - IC50) was 9.08 µM.

For the molecule `CCOC(=O)c1c(S(=O)(=O)Nc2cccc(C(F)(F)F)c2)c(-c2ccccc2)n(-c2ccccc2)c1C`, the IC90 is over 6.24 µM. In addition, for the setting “FFLUC_HILL_SLOPE 40.4, FFLUC_R_SQUARED 0.424, read-out: LUCIFERASE INFECTION ASSAY - IC50”, the IC50 was over 6.24 µM.

For the molecule `O=C(O)c1c2c(nc3ccccc13)/C(=C/c1ccc(OC(F)F)cc1)CC2`, the IC90 was over 10 µM. For the same molecule, the IC50 (PBLUC_HILL_SLOPE 0.722, PBLUC_R_SQUARED 0.387, read-out: LUCIFERASE INFECTION ASSAY - IC50) was 5.43 µM.

With `CCOC(=O)c1c(NC(=O)Cn2ncc(Cl)c(Cl)c2=O)sc2c1CCC(C)C2` (stereo not drawn), the IC90 is over 10 µM. In addition, the half-inhibitory concentration (IC50) under setting [1] was over 10 µM.

As for `CCOC(=O)c1sc(SCc2ccccc2)c2c1CC(c1ccc(C)cc1)CC2O` (stereo not drawn), the IC90 was over 7.52 µM. The IC50 (FFLUC_HILL_SLOPE 27.4, FFLUC_R_SQUARED 0.148, read-out: LUCIFERASE INFECTION ASSAY - IC50) is over 7.52 µM.

For `Cc1ccc(NC(=O)Nc2ccc3nc(Cc4ccccc4)nn3c2)cc1`, the IC90 came to 2.11 µM. Further, the IC50 (HEPG2TOX_HILL_SLOPE 3.07, HEPG2TOX_R_SQUARED 0.95, PBLUC_HILL_SLOPE 55.2, PBLUC_R_SQUARED 0.375, read-out: LUCIFERASE INFECTION ASSAY - IC50) is 2.02 µM.

Turning to `Cc1ccnc(NC(c2ccccn2)c2ccc3cccnc3c2O)c1` (stereo not drawn), the IC90 was over 9.64 µM. In addition, the IC50 (FFLUC_HILL_SLOPE 17.7, FFLUC_R_SQUARED 0.0708, HEPG2TOX_HILL_SLOPE 10.6, HEPG2TOX_R_SQUARED 0.571, PBLUC_HILL_SLOPE 38.3, PBLUC_R_SQUARED 0.424, read-out: LUCIFERASE INFECTION ASSAY - IC50) was 9.27 µM.

For the molecule `O=c1nc(SCc2ccc(Cl)cc2Cl)[nH]c2ccccc12`, the concentration for an effect of 90% (IC90) was over 9.79 µM. Further, the IC50 under setting [1] is over 9.79 µM.

Turning to `COCCNc1nc(-c2ccc(Cl)cc2)nc2ccccc12`, the IC90 was over 10.5 µM. Besides, the IC50 under setting [1] was over 10.5 µM.

On to `Cc1cc(C(=O)NCCNC(=O)c2cccn2C)c2nc3n(c2n1)CCCCC3`, for which the IC90 was over 10 µM. Besides, the IC50 under setting [1] was over 10 µM.

Turning to `CCCc1cc(=O)n2nc(Cc3ccccc3)c(-c3ccccc3)c2[nH]1`, the IC90 is over 9.61 µM. The IC50 (HEPG2TOX_HILL_SLOPE 6.09, HEPG2TOX_R_SQUARED 0.391, read-out: LUCIFERASE INFECTION ASSAY - IC50) is over 9.61 µM.

Take `N#Cc1c(F)ccc(NC(=O)Nc2ccc(Cl)cc2)c1F`: the IC90 was over 10.7 µM. In addition, the IC50 (PBLUC_HILL_SLOPE 14.7, PBLUC_R_SQUARED 0.232, read-out: LUCIFERASE INFECTION ASSAY - IC50) was found to be 10.6 µM.

On to `O=C(OC(C(=O)N1CCOCC1)c1ccccc1)c1cccc(-n2cccc2)c1` (stereo not drawn), for which the IC90 is over 2 µM. For the same molecule, under setting [1], the IC50 was over 2 µM.

Consider `CS(=O)(=O)Nc1cccc(-c2cn3c(-c4ccc5c(c4)OCO5)cnc3cn2)c1`, for which the IC90 is over 8.08 µM. The IC50 (PBLUC_HILL_SLOPE 1.71, PBLUC_R_SQUARED 0.507, read-out: LUCIFERASE INFECTION ASSAY - IC50) worked out at 6.08 µM.

For `O=C(NC(=S)NN(C(=S)NC(=O)c1ccccc1Br)c1nc2ccccc2[nH]1)c1ccccc1Br`, the IC90 was over 10 µM. Also, the concentration for half-maximal inhibition (IC50) under setting [1] was over 10 µM.

For `CCCCNC(=O)c1c(NC(=O)c2ccc(F)c(F)c2)nc2ccccn12`, the IC90 was 0.748 µM. The IC50 (FFLUC_HILL_SLOPE 25.4, FFLUC_R_SQUARED 0.228, HEPG2TOX_HILL_SLOPE 1.03, HEPG2TOX_R_SQUARED 0.844, PBLUC_HILL_SLOPE 2.52, PBLUC_R_SQUARED 0.719, read-out: LUCIFERASE INFECTION ASSAY - IC50) was 0.313 µM.

As for `Fc1ccc(CNc2n[nH]c(=S)s2)cc1`, the IC90 is over 13.7 µM. Besides, the IC50 (FFLUC_HILL_SLOPE 2.08, FFLUC_R_SQUARED 0.432, read-out: LUCIFERASE INFECTION ASSAY - IC50) is over 13.7 µM.

Take `CCN1C(=O)N(Cc2ccccn2)C(=O)C12CCN(Cc1ccc3c(c1)Cc1ccccc1-3)CC2`: the IC90 amounted to 6.49 µM. Further, where the note is “HEPG2TOX_HILL_SLOPE 46.6, HEPG2TOX_R_SQUARED 0.935, PBLUC_HILL_SLOPE 4.5, PBLUC_R_SQUARED 0.25, read-out: LUCIFERASE INFECTION ASSAY - IC50”, the IC50 worked out at 3.98 µM.

Take `C=CCNC(=S)N1CCc2sccc2C1c1ccc(OC)cc1` (stereo not drawn): the IC90 is over 9.58 µM. Moreover, the IC50 (PBLUC_HILL_SLOPE 0.135, PBLUC_R_SQUARED 0.112, read-out: LUCIFERASE INFECTION ASSAY - IC50) is over 9.58 µM.

With `OC12CC3CC(C1)CC(c1cc(-c4ccccc4Cl)c4cc(Cl)ccc4n1)(C3)C2`, the IC90 is over 10 µM. Also, under setting [1], the IC50 is over 10 µM.

These data come from ChEMBL document CHEMBL4483862, “Open-source discovery of chemical leads for next-generation chemoprotective antimalarials” (2018).
